Results taken from article PMC10046369, “Low-Affinity/High-Selectivity Dopamine Transport Inhibition Sufficient to Rescue Cognitive Functions in the Aging Rat” (Biomolecules, 2023).

Tests used:
Test in all cases: biochemical
Design in all cases: KINOMEscan competition binding panel, per cent of control
Settings in all cases: read-out: %Ctrl @ 2800nM
TNK2 = TNK2 (Homo sapiens, UniProt Q07912)
Summary of the method: (§1)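 Values are expressed as percent of control, calculated as ((test − positive control)/(negative control − positive control)) × 100, so lower numbers mean stronger hits. Binding was measured by KINOMEscan competition assay in a 450-kinase human panel including disease mutants, using the contractor's validated protocol.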

PIK3CA(E545A) = PIK3CA(E545A) (Homo sapiens, UniProt P42336, E545A)
Summary of the method: as §1

GSK3A = GSK3A (Homo sapiens, UniProt P49840)
Summary of the method: as §1

AAK1 = AAK1 (Homo sapiens, UniProt Q2M2I8)
Summary of the method: as §1

PRKG1 = PRKG1 (Homo sapiens, UniProt Q13976)
Chain of PRKG1 (Q13976 whole entry): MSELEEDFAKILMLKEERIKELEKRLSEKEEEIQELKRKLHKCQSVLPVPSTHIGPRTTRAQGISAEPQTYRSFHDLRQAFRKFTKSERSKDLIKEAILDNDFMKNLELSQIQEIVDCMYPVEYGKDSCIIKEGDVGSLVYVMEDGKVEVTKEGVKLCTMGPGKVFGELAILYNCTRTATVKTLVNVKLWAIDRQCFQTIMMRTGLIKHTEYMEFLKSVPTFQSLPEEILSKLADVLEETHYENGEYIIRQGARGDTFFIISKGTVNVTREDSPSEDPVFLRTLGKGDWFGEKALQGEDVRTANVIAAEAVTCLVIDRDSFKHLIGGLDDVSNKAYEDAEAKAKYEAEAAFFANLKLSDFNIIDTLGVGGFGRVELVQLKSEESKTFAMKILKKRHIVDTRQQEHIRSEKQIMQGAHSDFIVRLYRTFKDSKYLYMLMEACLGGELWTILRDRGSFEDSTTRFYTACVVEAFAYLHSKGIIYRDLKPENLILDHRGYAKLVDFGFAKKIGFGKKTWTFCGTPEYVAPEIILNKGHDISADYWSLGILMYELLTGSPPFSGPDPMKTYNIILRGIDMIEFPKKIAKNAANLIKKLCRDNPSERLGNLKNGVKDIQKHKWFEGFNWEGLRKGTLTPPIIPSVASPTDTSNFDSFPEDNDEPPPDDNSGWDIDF
Summary of the method: as §1

BRK = biological target: T1, BRK (Homo sapiens, UniProt Q13882)
T1 construct: gene PTK6
Summary of the method: as §1

TNIK = TNIK (Homo sapiens, UniProt Q9UKE5)
Chain of TNIK (Q9UKE5 whole entry): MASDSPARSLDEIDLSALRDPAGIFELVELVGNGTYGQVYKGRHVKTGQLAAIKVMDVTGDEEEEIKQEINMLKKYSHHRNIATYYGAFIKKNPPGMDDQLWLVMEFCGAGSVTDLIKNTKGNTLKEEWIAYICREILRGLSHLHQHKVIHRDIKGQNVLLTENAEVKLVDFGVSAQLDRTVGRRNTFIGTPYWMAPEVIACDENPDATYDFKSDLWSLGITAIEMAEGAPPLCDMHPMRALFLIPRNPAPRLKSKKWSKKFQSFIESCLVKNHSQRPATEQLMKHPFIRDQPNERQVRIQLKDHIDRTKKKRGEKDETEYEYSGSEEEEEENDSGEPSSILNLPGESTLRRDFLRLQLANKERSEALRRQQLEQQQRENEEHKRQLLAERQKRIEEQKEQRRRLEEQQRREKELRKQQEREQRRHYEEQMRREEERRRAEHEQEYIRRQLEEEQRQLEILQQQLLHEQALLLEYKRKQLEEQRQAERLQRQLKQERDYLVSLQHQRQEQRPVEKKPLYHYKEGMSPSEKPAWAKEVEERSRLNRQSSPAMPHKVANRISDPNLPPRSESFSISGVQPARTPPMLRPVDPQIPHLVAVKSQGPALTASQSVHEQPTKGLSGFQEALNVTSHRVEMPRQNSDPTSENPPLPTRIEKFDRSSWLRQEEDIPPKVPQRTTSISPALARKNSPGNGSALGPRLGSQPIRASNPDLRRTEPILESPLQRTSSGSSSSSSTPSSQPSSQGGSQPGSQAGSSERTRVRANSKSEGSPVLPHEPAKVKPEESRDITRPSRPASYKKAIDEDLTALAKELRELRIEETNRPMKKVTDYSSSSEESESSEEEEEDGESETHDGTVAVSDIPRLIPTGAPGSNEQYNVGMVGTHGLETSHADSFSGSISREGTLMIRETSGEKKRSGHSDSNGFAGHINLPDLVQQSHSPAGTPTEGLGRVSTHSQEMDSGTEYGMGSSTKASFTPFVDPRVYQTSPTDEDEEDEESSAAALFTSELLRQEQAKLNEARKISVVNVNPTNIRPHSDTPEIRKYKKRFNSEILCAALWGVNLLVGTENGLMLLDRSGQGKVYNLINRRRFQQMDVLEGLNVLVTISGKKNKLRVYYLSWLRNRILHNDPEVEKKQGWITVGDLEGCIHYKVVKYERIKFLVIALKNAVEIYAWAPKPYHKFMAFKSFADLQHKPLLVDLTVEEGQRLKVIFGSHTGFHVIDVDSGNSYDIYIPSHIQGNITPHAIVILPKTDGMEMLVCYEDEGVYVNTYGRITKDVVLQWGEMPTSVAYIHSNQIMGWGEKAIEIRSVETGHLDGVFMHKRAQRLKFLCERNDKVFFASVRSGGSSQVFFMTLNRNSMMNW
Summary of the method: as §1

PDPK1 = PDPK1 (Homo sapiens, UniProt O15530)
Summary of the method: as §1

EGFR(E746-A750del) = EGFR(E746-A750del) (Homo sapiens, UniProt P00533, DEL746-750)
Summary of the method: as §1

NEK11 = NEK11 (Homo sapiens, UniProt Q8NG66)
Chain of NEK11 (Q8NG66 whole entry): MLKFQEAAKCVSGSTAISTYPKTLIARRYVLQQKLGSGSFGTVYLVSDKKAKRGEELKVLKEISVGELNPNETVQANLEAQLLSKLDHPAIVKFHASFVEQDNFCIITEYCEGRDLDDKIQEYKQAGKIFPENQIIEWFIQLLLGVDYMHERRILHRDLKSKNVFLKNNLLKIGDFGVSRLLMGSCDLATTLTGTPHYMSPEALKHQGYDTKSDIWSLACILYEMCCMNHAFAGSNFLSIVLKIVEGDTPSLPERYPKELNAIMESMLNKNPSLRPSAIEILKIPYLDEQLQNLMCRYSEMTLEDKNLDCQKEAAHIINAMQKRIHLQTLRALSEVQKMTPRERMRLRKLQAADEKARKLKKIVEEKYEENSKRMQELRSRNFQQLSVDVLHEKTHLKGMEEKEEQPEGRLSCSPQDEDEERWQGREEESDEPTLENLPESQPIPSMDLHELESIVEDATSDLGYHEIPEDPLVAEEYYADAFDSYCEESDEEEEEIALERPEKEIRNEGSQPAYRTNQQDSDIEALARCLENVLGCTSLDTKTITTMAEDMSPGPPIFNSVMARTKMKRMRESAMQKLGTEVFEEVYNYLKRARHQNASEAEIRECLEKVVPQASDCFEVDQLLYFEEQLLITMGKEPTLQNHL
Summary of the method: as §1

SIK2 = SIK2 (Homo sapiens, UniProt Q9H0K1)
Summary of the method: as §1

JNK3 = biological target: T2, JNK3 (Homo sapiens, UniProt P53779)
T2 construct: gene MAPK10
Summary of the method: as §1

KIT(A829P) = KIT(A829P) (Homo sapiens, UniProt P10721, A829P)
Summary of the method: as §1

NEK7 = NEK7 (Homo sapiens, UniProt Q8TDX7)
Chain of NEK7 (Q8TDX7 whole entry): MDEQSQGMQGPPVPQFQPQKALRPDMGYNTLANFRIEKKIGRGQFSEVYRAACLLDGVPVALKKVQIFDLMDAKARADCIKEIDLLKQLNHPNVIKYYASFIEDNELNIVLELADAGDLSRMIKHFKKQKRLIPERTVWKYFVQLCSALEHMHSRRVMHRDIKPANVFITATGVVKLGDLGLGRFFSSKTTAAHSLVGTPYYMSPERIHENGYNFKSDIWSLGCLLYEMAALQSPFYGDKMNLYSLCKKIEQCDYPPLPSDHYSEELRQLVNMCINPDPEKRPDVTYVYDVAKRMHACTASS
Summary of the method: as §1

FLT3(D835Y) = FLT3(D835Y) (Homo sapiens, UniProt P36888, D835Y)
Summary of the method: as §1

SGK = biological target: T3, SGK (Homo sapiens, UniProt O00141)
T3 construct: gene SGK1
Summary of the method: as §1

MEK3 = biological target: T4, MEK3 (Homo sapiens, UniProt P46734)
T4 construct: gene MAP2K3
Summary of the method: as §1

PLK1 = PLK1 (Homo sapiens, UniProt P53350)
Chain of PLK1 (P53350 whole entry): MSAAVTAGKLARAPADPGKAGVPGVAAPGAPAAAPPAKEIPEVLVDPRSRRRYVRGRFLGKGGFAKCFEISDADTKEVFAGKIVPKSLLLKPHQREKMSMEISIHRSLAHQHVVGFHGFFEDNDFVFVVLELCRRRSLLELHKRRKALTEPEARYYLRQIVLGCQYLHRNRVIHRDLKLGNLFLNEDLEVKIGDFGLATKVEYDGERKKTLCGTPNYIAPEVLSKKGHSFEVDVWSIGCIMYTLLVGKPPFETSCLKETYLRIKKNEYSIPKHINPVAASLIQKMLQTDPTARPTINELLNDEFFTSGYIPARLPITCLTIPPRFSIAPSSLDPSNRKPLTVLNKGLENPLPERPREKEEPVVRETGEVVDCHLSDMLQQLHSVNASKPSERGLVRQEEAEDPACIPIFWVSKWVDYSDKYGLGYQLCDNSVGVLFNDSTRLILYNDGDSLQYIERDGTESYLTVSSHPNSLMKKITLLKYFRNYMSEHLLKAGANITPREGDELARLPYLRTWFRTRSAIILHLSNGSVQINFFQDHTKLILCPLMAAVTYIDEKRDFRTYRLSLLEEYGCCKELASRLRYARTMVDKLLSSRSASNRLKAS
Summary of the method: as §1

IKK-alpha = biological target: T5, IKK-alpha (Homo sapiens, UniProt O15111)
T5 construct: gene CHUK
T5 sequence (O15111 whole entry): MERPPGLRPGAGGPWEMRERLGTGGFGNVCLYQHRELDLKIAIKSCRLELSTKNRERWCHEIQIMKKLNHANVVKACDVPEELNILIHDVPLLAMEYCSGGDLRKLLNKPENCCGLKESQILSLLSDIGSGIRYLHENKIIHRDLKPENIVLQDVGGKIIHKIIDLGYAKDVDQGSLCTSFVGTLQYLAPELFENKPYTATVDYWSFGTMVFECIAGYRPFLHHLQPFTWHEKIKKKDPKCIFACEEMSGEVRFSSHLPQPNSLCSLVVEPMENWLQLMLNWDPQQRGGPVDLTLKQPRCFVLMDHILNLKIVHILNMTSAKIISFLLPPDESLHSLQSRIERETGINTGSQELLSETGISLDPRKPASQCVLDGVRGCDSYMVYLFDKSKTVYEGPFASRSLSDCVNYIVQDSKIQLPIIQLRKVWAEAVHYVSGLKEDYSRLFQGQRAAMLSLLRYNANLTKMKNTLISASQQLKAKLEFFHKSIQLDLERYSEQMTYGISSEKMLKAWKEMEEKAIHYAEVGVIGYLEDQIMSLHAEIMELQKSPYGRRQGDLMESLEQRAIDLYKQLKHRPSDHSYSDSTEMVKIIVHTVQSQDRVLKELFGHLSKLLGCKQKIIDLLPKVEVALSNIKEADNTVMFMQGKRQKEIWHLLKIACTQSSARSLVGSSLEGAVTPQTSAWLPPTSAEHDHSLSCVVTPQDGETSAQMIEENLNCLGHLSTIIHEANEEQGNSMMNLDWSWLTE
Summary of the method: as §1

DDR2 = DDR2 (Homo sapiens, UniProt Q16832)
Summary of the method: as §1

ACVRL1 = ACVRL1 (Homo sapiens, UniProt P37023)
Summary of the method: as §1

PCTK2 = biological target: T6, PCTK2 (Homo sapiens, UniProt Q00537)
T6 construct: gene CDK17
T6 sequence (Q00537 whole entry): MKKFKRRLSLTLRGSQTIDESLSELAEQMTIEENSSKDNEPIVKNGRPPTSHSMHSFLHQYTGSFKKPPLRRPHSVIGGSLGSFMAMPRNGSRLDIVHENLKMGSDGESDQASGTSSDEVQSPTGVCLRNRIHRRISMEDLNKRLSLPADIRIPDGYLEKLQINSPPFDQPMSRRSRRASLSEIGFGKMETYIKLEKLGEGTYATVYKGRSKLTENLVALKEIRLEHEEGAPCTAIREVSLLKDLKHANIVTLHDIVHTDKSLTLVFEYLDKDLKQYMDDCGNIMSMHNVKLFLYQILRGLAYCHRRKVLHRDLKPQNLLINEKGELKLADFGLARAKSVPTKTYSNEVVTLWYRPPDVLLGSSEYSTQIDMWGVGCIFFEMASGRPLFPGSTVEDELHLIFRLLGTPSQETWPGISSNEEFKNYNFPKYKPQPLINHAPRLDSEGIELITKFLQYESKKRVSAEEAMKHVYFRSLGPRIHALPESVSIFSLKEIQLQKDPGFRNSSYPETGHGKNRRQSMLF
Summary of the method: as §1

MAP3K4 = MAP3K4 (Homo sapiens, UniProt Q9Y6R4)
Summary of the method: as §1

FLT3(D835V) = FLT3(D835V) (Homo sapiens, UniProt P36888, D835V)
Summary of the method: as §1

CLK4 = CLK4 (Homo sapiens, UniProt Q9HAZ1)
Summary of the method: as §1

PFTAIRE2 = biological target: T7, PFTAIRE2 (Homo sapiens, UniProt Q96Q40)
T7 construct: gene CDK15
Summary of the method: as §1

[O-][S@@+](Cc1cncs1)C(c1ccccc1)c1ccccc1 [S-CE-123, (S)-5-((Benzhydrylsulfinyl)Methyl)Thiazole]
remaining binding at 2.8 µM (TNK2): 100% | remaining binding at 2.8 µM (PIK3CA(E545A)): 93% | remaining binding at 2.8 µM (GSK3A): 99% | remaining binding at 2.8 µM (AAK1): 88% | remaining binding at 2.8 µM (PRKG1): 100% | remaining binding at 2.8 µM (BRK): 96% | remaining binding at 2.8 µM (TNIK): 89% | remaining binding at 2.8 µM (PDPK1): 95% | remaining binding at 2.8 µM (EGFR(E746-A750del)): 93% | remaining binding at 2.8 µM (NEK11): 100% | remaining binding at 2.8 µM (SIK2): 100% | remaining binding at 2.8 µM (JNK3): 74% | remaining binding at 2.8 µM (KIT(A829P)): 98% | remaining binding at 2.8 µM (NEK7): 100% | remaining binding at 2.8 µM (FLT3(D835Y)): 99% | remaining binding at 2.8 µM (SGK): 94% | remaining binding at 2.8 µM (MEK3): 86% | remaining binding at 2.8 µM (PLK1): 79% | remaining binding at 2.8 µM (IKK-alpha): 100% | remaining binding at 2.8 µM (DDR2): 100% | remaining binding at 2.8 µM (ACVRL1): 84% | remaining binding at 2.8 µM (PCTK2): 93% | remaining binding at 2.8 µM (MAP3K4): 84% | remaining binding at 2.8 µM (FLT3(D835V)): 100% | remaining binding at 2.8 µM (CLK4): 100% | remaining binding at 2.8 µM (PFTAIRE2): 100%
